Results as given in patent US20220226293A1, “TREATMENTS OF ANGIOEDEMA” (KALVISTA PHARMACEUTICALS LIMITED, priority 2019, published 2022).
Blank lines part the entries; values can stand above or below the molecule they belong to.

Tests used:
[1] = background, literature and labels; cited from earlier work
[2] = target: T1, Human plasma kallikrein (Homo sapiens, UniProt P03952); assay: Plasma kallikrein inhibitory activity in vitro, purified enzyme, fluorogenic substrate; type: biochemical; conditions: 25° C., substrate H-DPro-Phe-Arg-AFC
T1 construct: purchased Protogen
Method: Human plasma kallikrein (Protogen) was incubated at 25° C. with the fluorogenic substrate H-DPro-Phe-Arg-AFC and various concentrations of the test compound. Residual enzyme activity (initial rate of reaction) was determined by measuring the change in […] at 410 nm and the IC50 value for the test compound was determined.

[3] = target: T2, plasma kallikrein-kinin pathway enzyme activity in pre-activated plasma (Homo sapiens, UniProt P03952); assay: Inhibition of enzyme activity of pre-activated undiluted plasma (compound added after DXS); type: biochemical; conditions: added 3.5 minutes post DXS; compound 300, 1000, 3000 nM; C1-INH 3000 nM
T2 construct: from tissue
Method: The ability of the compound to inhibit the enzyme activity of pre-activated plasma was assessed by addition of the compound after DXS stimulation. Aliquots of plasma (20 μL) were mixed with a 2.5 μL solution containing […] fluorogenic substrate (H-DPro-Phe-Arg-AFC) and a 2.5 μL solution of dextran sulphate (DXS; 100 μg/mL) which acted as an activator of the plasma kallikrein-kinin pathway. Enzyme activity was immediately measured by monitoring the accumulation of fluorescence liberated from the substrate by substrate cleavage over 16 minutes. At 3.5 minutes post DXS addition 5 μl of inhibitors or water control are were added into each well. The compound was tested at concentrations of 300, 1000 and 3000 nM. C1-INH at a concentration of 3000 nM and vehicle controls were also included.

[4] = target: purified PKa (Homo sapiens, UniProt P03952); assay: Rate of formation of the enzyme-inhibitor complex (Kon); type: biochemical
Method: The rate of formation of the enzyme-inhibitor complex (Kon) was determined using purified PKa rapidly mixed with a solution containing fluorogenic substrate and a concentration range of inhibitor. The time-dependent establishment of inhibition was then used to calculate the rate of formation of the enzyme-inhibitor complex for each concentration of inhibitor. The Kon was calculated by plotting the rate of inhibition versus the inhibitor concentration. Data in Table 1 are presented in μM^−1 sec^−1.

[5] = target: PKa in DXS-activated plasma (Homo sapiens, UniProt P03952); assay: Catalytic activity of PKa in dextran sulfate-activated plasma; type: biochemical; conditions: read-out: IC50 plasma enzyme
Method: Catalytic activity of PKa in dextran sulfate-activated (DXS, Sigma; 10 μg/ml) plasma (1:4 diluted or undiluted, VisuCon-F control plasma, Affinity Biologicals Inc) was determined by the time-dependent hydrolysis of fluorogenic substrate.

[6] = tested on: plasma prekallikrein; assay: Phase 1 SAD: ex vivo DXS-stimulated cleavage of plasma prekallikrein, Wes immunoassay; parameters: species or system human; conditions: 600 mg orally in capsules, up to 12 hrs post-dose
Description: (§1) DXS-stimulated cleavage of plasma prekallikrein and Factor XII (FXII) were quantified by capillary-based immunoassay on the Wes System (ProteinSimple) analogously.

[7] = tested on: HK cleavage in undiluted plasma; assay: DXS-activated cleavage of HK in undiluted plasma (immunoblot); type: biochemical, human; conditions: 300 nM PKa inhibitor, 20 min incubation with DXS
Method: DXS-activated cleavage of HK in undiluted plasma was performed in the absence or presence of 300 nM PKa inhibitor and quantified by SDS-PAGE gel electrophoresis, using 7.5% Criterion TGX Precast gels (Biorad). Transfer was made onto Immunobilon-FL PVDF membrane. Image analysis was done using the LICOR imaging system. Mouse monoclonal anti-HK antibody (MAB15692, R&D systems) was used for traditional immunoblotting. Data presented as % of HK remaining after 20 min incubation with DXS compared to HK levels in unactivated plasma (Table 1).

[8] = tested on: Factor XII (FXII); assay: Phase 1 SAD: ex vivo DXS-stimulated cleavage of Factor XII / generation of FXIIa, Wes immunoassay; parameters: species or system human; conditions: 600 mg orally in capsules, up to 12 hrs post-dose
Description: as §1

[9] = Phase 1 multiple dose study: safety, tolerability, ECG; type: in vivo, human; conditions: healthy adults
Method: This is a phase 1, double-blind, placebo-controlled, multiple-dose, multiple-cohort study to evaluate safety and tolerability of the compound as well as of the ECG effects of the compound formulated as 100 mg Film Coated Tablets in healthy adult male and female subjects.
During the study, oral doses of 600 mg of the compound as Film Coated Tablets (six 100 mg tablets) or 6 matching placebo tablets will be administered once every 8 hours (Cohort 1) every 4 hours (Cohort 2), or every 2 hours (Cohort 3 and 4) to healthy adult male and female subjects up to a total dose of 1800 mg. In Cohorts 1, 2 and 3, 6 subjects will receive the compound as 100 mg Film Coated Tablets and 2 subjects will receive the placebo for a total of 8 subjects per cohort. In Cohort 4, 12 subjects will receive the compound as 100 mg Film Coated Tablets and 6 subjects will receive the placebo for a total of 18 subjects.
A Holter monitor will be attached to each subject in order to continuously record ECGs. The monitor will be attached 1 hour before the first dose and will remain attached until after the final blood sample collection. The electrodes for the Holter monitor will be checked by a member of the clinic staff at appropriate intervals to ensure they are attached.

[10] = tested on: HK cleavage in undiluted citrated human plasma; assay: Protection of HK from PKa-mediated cleavage in DXS-stimulated HAE and control plasma (WES immunoassay); type: biochemical; conditions: HAE and healthy control plasma stimulated with dextran sulfate
Method: High molecular weight kininogen (HK) cleavage in undiluted citrated human plasma was induced by contact system activation with dextran sulfate (DXS, Sigma #31395-10G; 6.25 μg/ml) on wet ice. […] HAE plasma was obtained from HAE subjects (n=6) and C1-inhibitor deficiency was confirmed by western blotting. Protection of HK from PKa mediated cleavage in DXS-stimulated whole undiluted plasma was then determined by two methods; traditional western blotting and a semi-automated capillary-based immunoassay.
Capillary-based immunoassay on the WES System (ProteinSimple):
Preparation of samples: Combine one part 5× fluorescent master mix with four parts of the 1:200 plasma sample. Vortex to mix. Heat the samples+fluorescent master mix and the biotinylated ladder at 95° C. for 5 minutes, vortex, and load onto the WES plate. Monoclonal anti-human HK antibody was used for this chemiluminescence-based detection method using the Wes System (ProteinSimple).
Analysis: Collect the peak area measurement obtained in the Compass software (cbz file) for the full-length HK molecular weight of the respective time-point sample with DXS-induced activation. The peak area is defined as the area calculated for the spectral peak profile for HK. To measure the plasma kallikrein inhibition by the compound, the percent full-length HK detected was calculated.

[11] = target: T3, plasma kallikrein catalytic activity (Homo sapiens, UniProt P03952); assay: Phase 1 SAD / food effect: ex vivo PKa catalytic activity in DXS-stimulated undiluted plasma
T3 construct: from tissue; host or cells: undiluted plasma of healthy male study participants after oral dosing, stimulated ex vivo with dextran sulfate
Method: (§2) This study was a randomized, double-blind, placebo-controlled single ascending dose (SAD) and crossover studies for food effect and capsule/tablet formulations.
PD measurements were determined in dextran sulfate (DXS) stimulated undiluted plasma using a fluorogenic enzyme assay and capillary based HK cleavage immunoassay.
The time until appearance of detectable amidolytic enzyme activity in DXS-stimulated plasma (lag time) was calculated from the catalytic activity assay. The detection sensitivity of the rate of catalytic activity in plasma based on using a Spark (Tecan) fluorimeter is a fluorescence increase to reach 1ΔF unit/sec.

[12] = Phase 1 SAD: plasma pharmacokinetics (LC MS/MS); type: in vivo, human
Method: Samples for pharmacokinetic (PK) and PD assessment were taken at repeated intervals over 48 hours.
Plasma samples used for PK assessment were analysed using a validated liquid chromatography tandem mass spectrometry (LC MS/MS) method.

[13] = Phase 1 SAD and food effect study: safety and tolerability; type: in vivo, human; conditions: phase I trial, healthy males
Description: as §2

[14] = tested on: HK cleavage; assay: Phase 1 SAD: ex vivo DXS-stimulated cleavage of HK, Wes capillary immunoassay; parameters: species or system human; conditions: 600 mg orally in capsules, up to 12 hrs post-dose
Method: DXS-stimulated cleavage of HK, in undiluted plasma was quantified by capillary-based immunoassay on the Wes System (ProteinSimple) using monoclonal anti-HK antibody and chemiluminescence-based detection. Plasma kallikrein mediated HK cleavage in undiluted citrated human plasma was induced by contact system activation with DXS (6.25 μg/ml) at 4° C. in selected samples from the SAD phase.

[15] = 3 x 600 mg every 8, 4 or 2 hours

T3 sequence (P03952 391-638 limits assumed): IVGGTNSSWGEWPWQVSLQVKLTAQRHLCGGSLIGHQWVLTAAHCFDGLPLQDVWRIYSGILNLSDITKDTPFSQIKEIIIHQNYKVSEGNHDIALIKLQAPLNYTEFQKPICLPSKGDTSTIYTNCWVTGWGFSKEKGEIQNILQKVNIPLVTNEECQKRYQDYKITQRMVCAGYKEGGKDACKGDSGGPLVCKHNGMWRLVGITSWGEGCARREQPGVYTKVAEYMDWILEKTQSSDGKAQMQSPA
T3 sequence (P03952 20-390 partner limits assumed): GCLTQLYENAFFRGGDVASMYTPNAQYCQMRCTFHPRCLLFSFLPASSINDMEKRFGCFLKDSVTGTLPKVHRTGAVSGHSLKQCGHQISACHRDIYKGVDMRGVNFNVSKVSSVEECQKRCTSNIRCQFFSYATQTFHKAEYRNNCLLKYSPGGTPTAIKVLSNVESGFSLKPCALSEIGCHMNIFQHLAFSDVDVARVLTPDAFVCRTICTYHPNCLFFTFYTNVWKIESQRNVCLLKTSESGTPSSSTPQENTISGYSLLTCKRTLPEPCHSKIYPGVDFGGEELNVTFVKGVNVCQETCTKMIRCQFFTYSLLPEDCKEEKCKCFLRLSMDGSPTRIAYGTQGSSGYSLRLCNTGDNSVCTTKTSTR
PKa in DXS-activated plasma, sequence (P03952 391-638 limits assumed): as the sequence (P03952 391-638 limits assumed) above
PKa in DXS-activated plasma, sequence (P03952 20-390 partner limits assumed): as the sequence (P03952 20-390 partner limits assumed) above
purified PKa, sequence (P03952 391-638 limits assumed): as the sequence (P03952 391-638 limits assumed) above
purified PKa, sequence (P03952 20-390 partner limits assumed): as the sequence (P03952 20-390 partner limits assumed) above
T1 sequence (P03952 391-638 limits assumed): as the sequence (P03952 391-638 limits assumed) above
T1 sequence (P03952 20-390 partner limits assumed): as the sequence (P03952 20-390 partner limits assumed) above
T2 sequence (P03952 391-638 limits assumed): as the sequence (P03952 391-638 limits assumed) above
T2 sequence (P03952 20-390 partner limits assumed): as the sequence (P03952 20-390 partner limits assumed) above

Molecule: Ecallantide
- reported adverse reactions / risks [1]: risk of anaphylactic reactions

Molecule: N#Cc1cccc([C@@H](NCC2CC2)c2ccc(F)c(NC(=O)c3cc(C(F)(F)F)nn3-c3cccc(CN)c3)c2)c1 [Berotralstat]
- reported adverse reactions / risks [1]: higher doses were associated with more gastrointestinal adverse effects

- IC50 [2]: 50 nM
- inhibition of enzyme activity after activation of plasma [3]: slower action
- Kon [4]: 40000 M⁻¹ s⁻¹
- IC50 [5]: 1700 nM
Molecule: C1-INH: C1 inhibitor (C1-INH, Sigma Cat #E0518), comparator [Compound C1-INH]

- inhibition at 600 mg ([11]; 600 mg tablet, by 30 minutes, fed and fasted state): > 90%
- food effect on pharmacodynamic (PD) profile ([11]; 600 mg tablet, fed and fasted state): no significant food-effect
- inhibition at 160 mg ([11]; po, cohort 6 (160 mg oral), between 45 min and 2 hr post-dose): > 90%
- inhibition at 300 mg ([11]; po, cohort 7 (300 mg oral), between 20 min and 4 hr post-dose): > 90%
- plasma concentration ([12]; following a dosage amount of at least about 60 mg): at least 500 ng/mL
- plasma exposure ([12]; oral capsule, fasted, 5 mg to 600 mg): rapid and dose-dependent plasma exposure
Molecule: COCc1nn(Cc2ccc(Cn3ccccc3=O)cc2)cc1C(=O)NCc1nccc(OC)c1F [Compound of Formula A, N-[(3-fluoro-4-methoxypyridin-2-yl)methyl]-3-(methoxymethyl)-1-({4-[(2-oxopyridin-1-yl)methyl]phenyl}methyl)pyrazole-4-carboxamide]
- effect on PPK cleavage [6]: reduces PPK cleavage
- HK protection (% of HK remaining vs unactivated plasma) [7]: 85%
- effect on generation of FXIIa [8]: reduces the generation of FXIIa
- serious adverse events [9, 15]: No serious adverse events were reported
- severity of reported adverse events [9, 15]: mild
- effects on the studied ECG parameters ([9]; 3 x 600 mg): No clinically relevant effects
- protection against HK cleavage [10]: dose dependent protection against HK cleavage
- lag time (time until appearance of catalytic activity during contact system activation) ([11]; 600 mg dose, tablet formulation): increases the time until appearance of catalytic activity
- detectable catalytic activity after prolonged DXS activation ([11]; 600 mg tablet, early time points post-dose): did not display detectable catalytic activity
- serious adverse events [13]: No serious adverse events were reported
- tolerability signals [13]: no tolerability signals
- effect on HK cleavage [14]: reduces HK cleavage

B1: lanadelumab: recombinant fully human IgG1 kappa light chain monoclonal antibody, active substance of Takhzyro® (antibody, chains of the INN, looked up, V domains shown)
VH: EVQLLESGGGLVQPGGSLRLSCAASGFTFSHYIMMWVRQAPGKGLEWVSGIYSSGGITVYADSVKGRFTISRDNSKNTLYLQMNSLRAEDTAVYYCAYRRIGVPRRDEFDIWGQGTMVTVSS
VL: DIQMTQSPSTLSASVGDRVTITCRASQSISSWLAWYQQKPGKAPKLLIYKASTLESGVPSRFSGSGSGTEFTLTISSLQPDDFATYYCQQYNTYWTFGQGTKVEIK
- reported adverse reactions / risks [1]: hypersensitivity, injection site pain, injection site erythema, and injection site bruising
